Results: ChEMBL document CHEMBL3885861, “Open TG-GATES”

Species: Rattus norvegicus
Test: Open TG-GATES - Regimen: Single
Format: toxicity, organism-based, Sprague-Dawley
Parameters: regimen Single, gender Male, age 6 weeks
Details: in vivo, po, route gavage; for APTT / Bas / Eos / Fbg / Hb / Ht / Lym / MCH / MCHC / MCV / Mono / Neu / PT / Plat / RBC / Ret / WBC: tissue Blood; for KIDNEY_L / KIDNEY_R / KIDNEY_TOTAL: tissue Kidney; for LIVER: tissue Liver; for A/G / ALP / ALT / AST / BUN / CRE / Ca / Cl / DBIL / GLC / IP / K / LDH / Na / PL / RALB / TBIL / TC / TG / TP / gamma-GTP: tissue Plasma
[1] = 300 mg/kg, 3 h, dose level Middle
[2] = 300 mg/kg, 6 h, dose level Middle
[3] = 300 mg/kg, 9 h, dose level Middle
[4] = 300 mg/kg, 24 h, dose level Middle
[5] = 1000 mg/kg, 3 h, dose level High
[6] = 1000 mg/kg, 6 h, dose level High
[7] = 1000 mg/kg, 9 h, dose level High
[8] = 1000 mg/kg, 24 h, dose level High

CN/C(=N/CCSCc1nc[nH]c1C)NC#N [CIMETIDINE]
TERMINAL_BW [1]: 213.9 g
APTT [1]: 17.7 s
Bas [1]: 0%
Eos [1]: 0.8%
Fbg [1]: 212 mg/dL
Hb [1]: 12.6 g/dL
Ht [1]: 37.5%
Lym [1]: 77.6%
MCH [1]: 21.5 pg
MCHC [1]: 33.7%
MCV [1]: 63.8 fL
Mono [1]: 3%
Neu [1]: 17.2%
PT [1]: 12.8 s
Plat [1]: 128.8 x10_4/uL
RBC [1]: 587.2 x10_4/ul
Ret [1]: 8.2%
WBC [1]: 84.3 x10_2/uL
KIDNEY_L [1]: 1 g
KIDNEY_R [1]: 0.9 g
KIDNEY_TOTAL [1]: 1.9 g
LIVER [1]: 10.5 g
A/G [1]: 1.6
ALP [1]: 1248.6 IU/L
ALT [1]: 37.4 IU/L
AST [1]: 68.6 IU/L
BUN [1]: 10.8 mg/dL
CRE [1]: 0.4 mg/dL
Ca [1]: 10.7 mg/dL
Cl [1]: 103.4 meq/L
DBIL [1]: 0.072 mg/dL
GLC [1]: 191.2 mg/dL
IP [1]: 8.8 mg/dL
K [1]: 4.1 meq/L
LDH [1]: 155.6 IU/L
Na [1]: 140.8 meq/L
PL [1]: 158 mg/dL
RALB [1]: 3.3 g/dL
TBIL [1]: 0.1 mg/dL
TC [1]: 83 mg/dL
TG [1]: 57 mg/dL
TP [1]: 5.4 g/dL
gamma-GTP [1]: 1.4 IU/L
TERMINAL_BW [2]: 209.1 g
APTT [2]: 19.5 s
Bas [2]: 0%
Eos [2]: 1%
Fbg [2]: 224 mg/dL
Hb [2]: 13 g/dL
Ht [2]: 37.3%
Lym [2]: 72.4%
MCH [2]: 21.6 pg
MCHC [2]: 34.8%
MCV [2]: 62.2 fL
Mono [2]: 3.4%
Neu [2]: 22.6%
PT [2]: 13.4 s
Plat [2]: 134.4 x10_4/uL
RBC [2]: 600.8 x10_4/ul
Ret [2]: 7.9%
WBC [2]: 100.3 x10_2/uL
KIDNEY_L [2]: 1 g
KIDNEY_R [2]: 1 g
KIDNEY_TOTAL [2]: 1.9 g
LIVER [2]: 9.3 g
A/G [2]: 1.7
ALP [2]: 926.2 IU/L
ALT [2]: 38.2 IU/L
AST [2]: 68 IU/L
BUN [2]: 8.4 mg/dL
CRE [2]: 0.4 mg/dL
Ca [2]: 10.4 mg/dL
Cl [2]: 103.2 meq/L
DBIL [2]: 0.068 mg/dL
GLC [2]: 185 mg/dL
IP [2]: 9.6 mg/dL
K [2]: 3.8 meq/L
LDH [2]: 148.6 IU/L
Na [2]: 141 meq/L
PL [2]: 138.2 mg/dL
RALB [2]: 3.4 g/dL
TBIL [2]: 0.1 mg/dL
TC [2]: 70.2 mg/dL
TG [2]: 60 mg/dL
TP [2]: 5.5 g/dL
gamma-GTP [2]: 1.4 IU/L
TERMINAL_BW [3]: 208.3 g
APTT [3]: 20.6 s
Bas [3]: 0%
Eos [3]: 0.8%
Fbg [3]: 214.4 mg/dL
Hb [3]: 12.6 g/dL
Ht [3]: 36.5%
Lym [3]: 80.2%
MCH [3]: 21.6 pg
MCHC [3]: 34.5%
MCV [3]: 62.6 fL
Mono [3]: 2.6%
Neu [3]: 15.6%
PT [3]: 13.9 s
Plat [3]: 126.2 x10_4/uL
RBC [3]: 583.4 x10_4/ul
Ret [3]: 7.8%
WBC [3]: 70.7 x10_2/uL
KIDNEY_L [3]: 1 g
KIDNEY_R [3]: 1 g
KIDNEY_TOTAL [3]: 1.9 g
LIVER [3]: 8.8 g
A/G [3]: 1.7
ALP [3]: 807.2 IU/L
ALT [3]: 31 IU/L
AST [3]: 58.6 IU/L
BUN [3]: 9.8 mg/dL
CRE [3]: 0.4 mg/dL
Ca [3]: 10.3 mg/dL
Cl [3]: 102 meq/L
DBIL [3]: 0.068 mg/dL
GLC [3]: 189.8 mg/dL
IP [3]: 10.3 mg/dL
K [3]: 3.9 meq/L
LDH [3]: 115.6 IU/L
Na [3]: 141 meq/L
PL [3]: 136 mg/dL
RALB [3]: 3.4 g/dL
TBIL [3]: 0.1 mg/dL
TC [3]: 72.4 mg/dL
TG [3]: 36.4 mg/dL
TP [3]: 5.5 g/dL
gamma-GTP [3]: 1.6 IU/L
TERMINAL_BW [4]: 223.6 g
APTT [4]: 19.1 s
Bas [4]: 0%
Eos [4]: 0.8%
Fbg [4]: 214.8 mg/dL
Hb [4]: 13.5 g/dL
Ht [4]: 40.7%
Lym [4]: 82.2%
MCH [4]: 21.5 pg
MCHC [4]: 33.3%
MCV [4]: 64.5 fL
Mono [4]: 2.2%
Neu [4]: 13.6%
PT [4]: 12.7 s
Plat [4]: 126.7 x10_4/uL
RBC [4]: 631.2 x10_4/ul
Ret [4]: 6.5%
WBC [4]: 86.6 x10_2/uL
KIDNEY_L [4]: 1 g
KIDNEY_R [4]: 1 g
KIDNEY_TOTAL [4]: 2 g
LIVER [4]: 10.7 g
A/G [4]: 1.6
ALP [4]: 1056 IU/L
ALT [4]: 35.8 IU/L
AST [4]: 67.8 IU/L
BUN [4]: 15.4 mg/dL
CRE [4]: 0.4 mg/dL
Ca [4]: 10.9 mg/dL
Cl [4]: 102.2 meq/L
DBIL [4]: 0.09 mg/dL
GLC [4]: 200.8 mg/dL
IP [4]: 7.4 mg/dL
K [4]: 3.9 meq/L
LDH [4]: 183.4 IU/L
Na [4]: 140.8 meq/L
PL [4]: 159.8 mg/dL
RALB [4]: 3.5 g/dL
TBIL [4]: 0.2 mg/dL
TC [4]: 77.8 mg/dL
TG [4]: 94 mg/dL
TP [4]: 5.6 g/dL
gamma-GTP [4]: 1.6 IU/L
TERMINAL_BW [5]: 215.2 g
APTT [5]: 19.1 s
Bas [5]: 0%
Eos [5]: 1%
Fbg [5]: 216.2 mg/dL
Hb [5]: 12.3 g/dL
Ht [5]: 36.7%
Lym [5]: 76.4%
MCH [5]: 21.2 pg
MCHC [5]: 33.5%
MCV [5]: 63.1 fL
Mono [5]: 3%
Neu [5]: 18.6%
PT [5]: 13.1 s
Plat [5]: 126.2 x10_4/uL
RBC [5]: 582 x10_4/ul
Ret [5]: 7.9%
WBC [5]: 89.9 x10_2/uL
KIDNEY_L [5]: 1 g
KIDNEY_R [5]: 1 g
KIDNEY_TOTAL [5]: 2 g
LIVER [5]: 9.8 g
A/G [5]: 1.7
ALP [5]: 1031 IU/L
ALT [5]: 35.6 IU/L
AST [5]: 67 IU/L
BUN [5]: 8.6 mg/dL
CRE [5]: 0.4 mg/dL
Ca [5]: 10.6 mg/dL
Cl [5]: 104.4 meq/L
DBIL [5]: 0.068 mg/dL
GLC [5]: 181.8 mg/dL
IP [5]: 8.3 mg/dL
K [5]: 4 meq/L
LDH [5]: 175 IU/L
Na [5]: 141.4 meq/L
PL [5]: 150.2 mg/dL
RALB [5]: 3.3 g/dL
TBIL [5]: 0.1 mg/dL
TC [5]: 77.6 mg/dL
TG [5]: 46.6 mg/dL
TP [5]: 5.3 g/dL
gamma-GTP [5]: 1 IU/L
TERMINAL_BW [6]: 211.9 g
APTT [6]: 19 s
Bas [6]: 0%
Eos [6]: 0.8%
Fbg [6]: 227.4 mg/dL
Hb [6]: 13.2 g/dL
Ht [6]: 38.2%
Lym [6]: 78%
MCH [6]: 21.7 pg
MCHC [6]: 34.5%
MCV [6]: 63 fL
Mono [6]: 2.8%
Neu [6]: 17.2%
PT [6]: 13.5 s
Plat [6]: 125.8 x10_4/uL
RBC [6]: 607.4 x10_4/ul
Ret [6]: 7.6%
WBC [6]: 100.8 x10_2/uL
KIDNEY_L [6]: 1 g
KIDNEY_R [6]: 1 g
KIDNEY_TOTAL [6]: 2 g
LIVER [6]: 9.6 g
A/G [6]: 1.5
ALP [6]: 955 IU/L
ALT [6]: 34.2 IU/L
AST [6]: 65.8 IU/L
BUN [6]: 8.2 mg/dL
CRE [6]: 0.4 mg/dL
Ca [6]: 10.6 mg/dL
Cl [6]: 103.6 meq/L
DBIL [6]: 0.078 mg/dL
GLC [6]: 200.8 mg/dL
IP [6]: 9.8 mg/dL
K [6]: 4 meq/L
LDH [6]: 162.2 IU/L
Na [6]: 142.4 meq/L
PL [6]: 153.4 mg/dL
RALB [6]: 3.4 g/dL
TBIL [6]: 0.1 mg/dL
TC [6]: 75.6 mg/dL
TG [6]: 83.2 mg/dL
TP [6]: 5.6 g/dL
gamma-GTP [6]: 1.2 IU/L
TERMINAL_BW [7]: 208.6 g
APTT [7]: 18.7 s
Bas [7]: 0%
Eos [7]: 1%
Fbg [7]: 229.2 mg/dL
Hb [7]: 13.1 g/dL
Ht [7]: 37.4%
Lym [7]: 80%
MCH [7]: 22.1 pg
MCHC [7]: 35.1%
MCV [7]: 63 fL
Mono [7]: 2.4%
Neu [7]: 15.6%
PT [7]: 14.1 s
Plat [7]: 120.4 x10_4/uL
RBC [7]: 594.2 x10_4/ul
Ret [7]: 7.9%
WBC [7]: 94.9 x10_2/uL
KIDNEY_L [7]: 0.9 g
KIDNEY_R [7]: 0.9 g
KIDNEY_TOTAL [7]: 1.9 g
LIVER [7]: 8.9 g
A/G [7]: 1.7
ALP [7]: 1031 IU/L
ALT [7]: 32.8 IU/L
AST [7]: 62.4 IU/L
BUN [7]: 8.2 mg/dL
CRE [7]: 0.4 mg/dL
Ca [7]: 10.3 mg/dL
Cl [7]: 103.6 meq/L
DBIL [7]: 0.068 mg/dL
GLC [7]: 193.6 mg/dL
IP [7]: 9.7 mg/dL
K [7]: 3.7 meq/L
LDH [7]: 157 IU/L
Na [7]: 142 meq/L
PL [7]: 150.4 mg/dL
RALB [7]: 3.5 g/dL
TBIL [7]: 0.1 mg/dL
TC [7]: 77.2 mg/dL
TG [7]: 58.6 mg/dL
TP [7]: 5.5 g/dL
gamma-GTP [7]: 1.4 IU/L
TERMINAL_BW [8]: 223 g
APTT [8]: 19.3 s
Bas [8]: 0%
Eos [8]: 1%
Fbg [8]: 212.4 mg/dL
Hb [8]: 13.1 g/dL
Ht [8]: 39%
Lym [8]: 80.6%
MCH [8]: 21.3 pg
MCHC [8]: 33.6%
MCV [8]: 63.4 fL
Mono [8]: 2.4%
Neu [8]: 14.8%
PT [8]: 13 s
Plat [8]: 122.4 x10_4/uL
RBC [8]: 616 x10_4/ul
Ret [8]: 6.8%
WBC [8]: 101.7 x10_2/uL
KIDNEY_L [8]: 1 g
KIDNEY_R [8]: 1 g
KIDNEY_TOTAL [8]: 2 g
LIVER [8]: 10.6 g
A/G [8]: 1.6
ALP [8]: 1054.4 IU/L
ALT [8]: 34.2 IU/L
AST [8]: 68.8 IU/L
BUN [8]: 17.8 mg/dL
CRE [8]: 0.4 mg/dL
Ca [8]: 10.6 mg/dL
Cl [8]: 102 meq/L
DBIL [8]: 0.1 mg/dL
GLC [8]: 206.8 mg/dL
IP [8]: 7.7 mg/dL
K [8]: 3.8 meq/L
LDH [8]: 200 IU/L
Na [8]: 140 meq/L
PL [8]: 148 mg/dL
RALB [8]: 3.3 g/dL
TBIL [8]: 0.2 mg/dL
TC [8]: 76.2 mg/dL
TG [8]: 96.2 mg/dL
TP [8]: 5.4 g/dL
gamma-GTP [8]: 1.4 IU/L
